Molecular target: human RIP1 kinase domain (2-375) (Homo sapiens (Human), UniProt Q13546)
Assay: RIP1 kinase inhibition biochemical assay (Transcreener ADP, fluorescence polarization)
Conditions: Ki app from tight-binding Morrison equation; 50 nM enzyme, 50 uM ATP, 2 hours incubation
Protocol: RIP1 Kinase Inhibition Assays (Biochemical Assay)
The compounds of the present invention were tested for their capacity to inhibit RIP1K activity as described below.
The ability of the receptor interacting protein kinase (RIPK1) to catalyze the hydrolysis of adenosine-5′-triphosphate (ATP) is monitored using the Transcreener ADP (adenosine-5′-diphosphate) assay (BellBrook Labs). Purified human RIP1 kinase domain (2-375) (50 nM) derived from a baculovirus-infected insect cell expression system is incubated with test compounds for 2 hours in 50 mM Hepes buffer (pH 7.5) containing 30 mM MgCl2, 1 mM dithiothreitol, 50 uM ATP, 0.002% Brij-35, and 0.5% dimethyl sulfoxide (DMSO). Reactions are quenched by the addition of 1× Bell Brooks Stop buffer B (20 mM Hepes (ph7.5), 40 mM ethylenediaminetetraacetic acid and 0.02% Brij-35) containing an additional 12 mM EDTA and 55 ug/mL ADP2 antibody and 4 nM ADP-AlexaFluor® 633 tracer. The tracer bound to the antibody is displaced by the ADP generated during the RIP1K reaction, which causes a decrease in fluorescence polarization that is measured by laser excitation at 633 nm with a FP microplate reader M1000. Fractional activity was plotted against test article concentration. Using Genedata Screener software (Genedata; Basel, Switzerland), the data were fit to the tight-binding apparent inhibition constant (Ki^app) Morrison equation [Williams, J. W. and Morrison, J. F. (1979) The kinetics of reversible tight-binding inhibition. Methods Enzymol 63: 437-67]. The following equation was used to calculate fractional activity and Ki^app:
[formula] where [E]T and [I]T are the total concentrations of active enzyme and test article, respectively.
Exemplary compounds of the present invention are provided in Table 1 along with their physiochemical characterization and in vitro RIP1 kinase inhibitory activity data. “Method” in the first column of each table refers to the synthetic method(s) used to prepare each compound as shown in the Examples above. In certain examples, chiral column retention times (min) are provided for certain stereoisomers. Unless otherwise specified, the stereochemistry shown in each structure represents relative configuration of a single stereoisomer, and absolute configuration (i.e., “R” and/or “S”) is arbitrarily assigned. In some embodiments, where the Method is described to include the separation of stereoisomers, a single stereoisomer of a compound of Table 1 is provided.

Sequence of human RIP1 kinase domain (2-375) (Q13546 2-375): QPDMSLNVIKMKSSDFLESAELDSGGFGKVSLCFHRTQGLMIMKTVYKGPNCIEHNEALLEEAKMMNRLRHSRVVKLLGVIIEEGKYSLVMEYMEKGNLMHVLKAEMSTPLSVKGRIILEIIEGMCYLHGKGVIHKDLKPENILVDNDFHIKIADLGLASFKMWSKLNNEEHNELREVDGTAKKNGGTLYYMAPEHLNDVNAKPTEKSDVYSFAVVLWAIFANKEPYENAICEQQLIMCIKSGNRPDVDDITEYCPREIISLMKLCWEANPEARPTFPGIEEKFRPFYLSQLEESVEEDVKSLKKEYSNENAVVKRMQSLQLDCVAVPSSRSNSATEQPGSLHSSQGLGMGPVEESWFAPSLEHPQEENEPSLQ

Row | SMILES | Ki
1 | N#C[C@H]1C[C@@H]1S(=O)(=O)c1nc2n(n1)[C@H](c1ccccc1)C[C@@H]2F [Example 209, (1R,2S)-2-[[(5S,7S)-7-fluoro-5-phenyl-6,7-dihydro-5H-pyrrolo[1,2-b][1,2,4]triazol-2-yl]sulfonyl]cyclopropanecarbonitrile] | < 0.005 µM
2 | [O-][S@@+](CF)c1nc2n(n1)[C@H](c1cc(F)cc(F)c1)C[C@@H]2F (single isomer, unassigned) [Example 84] | < 0.005 µM
3 | O=S(=O)(c1nc2n(n1)[C@H](c1ccccc1)C[C@@H]2F)C(F)(F)CO (single isomer, unassigned) [Example 156] | 0.27 µM
4 | O=S(=O)(c1nc2n(n1)[C@H](c1cc(F)ccc1F)C[C@@H]2F)C(F)F (single isomer, unassigned) [Example 67] | 0.005 µM
5 | O=S(=O)(CCO)c1nc2n(n1)[C@H](c1ccccc1)C[C@@H]2F (single isomer, unassigned) [Example 223] | 0.19 µM
6 | O=S(=O)(c1nc2n(n1)[C@H](c1ccccc1)C[C@@H]2F)C1(C(F)F)CC1 (single isomer, unassigned) [Example 155] | 0.0048 µM
7 | O=S(=O)(c1nc2n(n1)[C@H](c1ccccc1Cl)CC2)C(F)F [Example 16, (5S)-5-(2-chlorophenyl)-2-(difluoromethylsulfonyl)-6,7-dihydro-5H-pyrrolo[1,2-b][1,2,4]triazole] | 0.056 µM
8 | O=S(=O)(c1nc2n(n1)[C@H](c1cc(F)cc(F)c1F)C[C@@H]2F)C1CC1 (single isomer, unassigned) [Example 39] | 0.006 µM
9 | O=S(=O)(c1nc2n(n1)[C@H](c1cc(F)cc(F)c1)C[C@@H]2F)C1CC1 (single isomer, unassigned) [Example 42] | < 0.005 µM
10 | O=S(=O)(c1nc2n(n1)[C@H](c1ccccc1)C[C@@H]2F)C1(F)CC1 (single isomer, unassigned) [Example 178] | 0.006 µM
11 | O=S(=O)(c1nc2n(n1)C(c1ccccc1)CC2)C(F)F (racemic) [Example 6] | 0.101 µM
12 | O=S(=O)(c1nc2n(n1)[C@H](c1cc(F)ccc1F)C[C@@H]2F)C1CC1F (stereo in doubt) [Example 202, (5S,7S)-5-(2,5-difluorophenyl)-7-fluoro-2-[(1R,2R)-2-fluorocyclopropyl]sulfonyl-6,7-dihydro-5H-pyrrolo[1,2-b][1,2,4]triazole] | < 0.005 µM
13 | CC[S+]([O-])c1nc2n(n1)[C@H](c1ccccc1)C[C@@H]2F (stereo partly drawn) [Example 107, (5S,7S)-2-ethylsulfinyl-7-fluoro-5-phenyl-6,7-dihydro-5H-pyrrolo[1,2-b][1,2,4]triazole] | 0.034 µM
14 | O=S(=O)(c1nc2n(n1)[C@H](c1ccccc1)C[C@@H]2F)C1CCOC1 (stereo partly drawn) [Example 166, (5S,7S)-7-fluoro-5-phenyl-2-tetrahydrofuran-3-ylsulfonyl-6,7-dihydro-5H-pyrrolo[1,2-b][1,2,4]triazole] | 0.043 µM
15 | N#CC[S@@+]([O-])c1nc2n(n1)[C@H](c1ccc(F)cc1)C[C@@H]2F (single isomer, unassigned) [Example 100] | 0.003 µM
16 | CC[S@+]([O-])c1nc2n(n1)[C@H](c1ccccc1)CC2 [Example 3, (5S)-2-[(S)-ethylsulfinyl]-5-phenyl-6,7-dihydro-5H-pyrrolo[1,2-b][1,2,4]triazole] | 0.162 µM
17 | O=S(=O)(Cc1ccccc1)c1nc2n(n1)[C@H](c1ccccc1)C[C@@H]2F (single isomer, unassigned) [Example 19] | 0.015 µM
18 | O=S(=O)(c1nc2n(n1)[C@H](c1cccc(F)c1)C[C@@H]2F)[C@H]1C[C@@H](O)C1 (single isomer, unassigned) [Example 195] | 0.46 µM

Row | SMILES | Ki
19 | O=S(=O)(CC(F)(F)F)c1nc2n(n1)[C@H](c1ccccc1)C[C@@H]2F (single isomer, unassigned) [Example 114] | 0.071 µM
20 | O=S(=O)(c1nc2n(n1)[C@H](c1ccccc1)C[C@@H]2F)[C@H]1C[C@@H](CF)C1 (single isomer, unassigned) [Example 169] | 0.052 µM
21 | [O-][S@@+](CC(F)(F)F)c1nc2n(n1)[C@H](c1ccccc1)C[C@@H]2F (single isomer, unassigned) [Example 183] | 0.004 µM
22 | C[C@H]1C[C@@H]1S(=O)(=O)c1nc2n(n1)[C@H](c1ccccc1)C[C@@H]2F (mixture of isomers) [Example 162, (5S,7S)-7-fluoro-5-phenyl-2-[rac-(1S,2S)-2-methylcyclopropyl]sulfonyl-6,7-dihydro-5H-pyrrolo[1,2-b][1,2,4]triazole] | 0.014 µM
23 | O=S(=O)(c1nc2n(n1)[C@H](c1cccc(F)c1F)C[C@@H]2F)C1CC1 (single isomer, unassigned) [Example 40] | 0.005 µM
24 | O=S(=O)(c1nc2n(n1)[C@H](c1cccc(F)c1)C[C@@H]2F)C(F)(F)F (single isomer, unassigned) [Example 135] | 0.004 µM
25 | O=S(=O)(c1nc2n(n1)[C@H](c1cc(Cl)ccc1F)C[C@@H]2F)C(F)F [Example 66, (5S,7S)-5-(5-chloro-2-fluorophenyl)-2-((difluoromethyl)sulfonyl)-7-fluoro-6,7-dihydro-5H-pyrrolo[1,2-b][1,2,4]triazole] | 0.069 µM
26 | [O-][S@+](CC(F)(F)F)c1nc2n(n1)[C@H](c1ccccc1)C[C@@H]2F (single isomer, unassigned) [Example 185] | 0.019 µM
27 | O=S(=O)(c1nc2n(n1)C(c1cc(F)cc(F)c1)CC2)C(F)F (racemic) [Example 175, 2-(Difluoromethylsulfonyl)-5-(3,5-difluorophenyl)-6,7-dihydro-5H-pyrrolo[1,2-b][1,2,4]triazole] | 0.22 µM
28 | N#CC[S@+]([O-])c1nc2n(n1)[C@H](c1ccccc1F)C[C@@H]2F (single isomer, unassigned) [Example 95] | 0.19 µM
29 | [O-][S@@+](CF)c1nc2n(n1)[C@H](c1ccccc1Cl)C[C@@H]2F (single isomer, unassigned) [Example 86] | < 0.005 µM
30 | O=S(=O)(c1nc2n(n1)[C@H](c1cc(F)cc(Cl)c1)C[C@@H]2F)C(F)F (single isomer, unassigned) [Example 215] | 0.032 µM
31 | [O-][S+](c1nc2n(n1)[C@H](c1ccccc1)C[C@@H]2F)C(F)F (mixture of isomers) [Example 13, Rac-(5S,7S)-2-((difluoromethyl)sulfinyl)-7-fluoro-5-phenyl-6,7-dihydro-5H-pyrrolo[1,2-b][1,2,4]triazole] | 0.042 µM
32 | O=S(=O)(c1nc2n(n1)[C@H](c1ccccc1)C[C@@H]2F)[C@H]1CCC1(F)F [Example 172, (5S,7S)-7-fluoro-5-phenyl-2-[(1S)-2,2-difluorocyclobutyl]sulfonyl-6,7-dihydro-5H-pyrrolo[1,2-b][1,2,4]triazole] | 0.006 µM
33 | O=S(=O)(c1nc2n(n1)[C@H](c1cccc(Cl)c1)C[C@@H]2F)C(F)F (single isomer, unassigned) [Example 61] | 0.039 µM
34 | [O-][S+](c1nc2n(n1)C(c1cc(F)cc(F)c1)CC2)C(F)F (stereo not drawn) [Example 176, 2-(Difluoromethylsulfinyl)-5-(3,5-difluorophenyl)-6,7-dihydro-5H-pyrrolo[1,2-b][1,2,4]triazole] | 0.11 µM
35 | O=S(=O)(c1nc2n(n1)[C@H](c1ccccc1)C[C@@H]2F)C1COC1 (single isomer, unassigned) [Example 228] | 0.006 µM
36 | [O-][S@+](CF)c1nc2n(n1)[C@H](c1c(F)cccc1F)C[C@@H]2F (single isomer, unassigned) [Example 81] | 0.29 µM
